Data: PMC12226733, “Evolution of iGluR ligand specificity, polyamine regulation, and ion selectivity inferred from a placozoan epsilon receptor” (Communications Biology, 2025)
Substitutions are numbered along the chain they refer to. Values joined by “and” are separate entries in the source; they are usually repeats but may differ in a detail not shown here. Identical values can stand only once. Like-named read-outs stand apart in the source and are kept apart here.

Tests used:
[1] = biological target: T1, GluA2 Q607S (Homo sapiens, UniProt P42262, Q607S); type: cell-based; details: GluA2 Q-S; for normalized conductance (G-V, Figure 5g), Avg: Na vs Na; for I-V current, Na vs Na, Avg of recordings: Figure 5b
T1 construct: host or cells: HEK-293T/17

[2] = biological target: GluE1αA wt (Trichoplax adhaerens, UniProt B3SAW0); details: for Normalized current (Inorm) GluE1αA wild type: single recordings and AVG
Source text: (§1) To further elucidate the nature of internal polyamine block in GluE1αA, we performed outside-out membrane patch clamp experiments in wildtype and mutant channels. […] Current-voltage (I-V) relationships were converted to conductance-voltage (G-V) plots and fit with a single permeant blocker model to estimate both the dissociation constant for Spm at 0 mV (Kd(0mV)) and the voltage dependency of block, as previously described[46],[47].
(§2) HEK-293T/17 cells (ATCC) were maintained in MEM supplemented with GlutaMAX and 10% fetal bovine serum (FBS) at 37 °C and 5% CO2. […] Transient transfections were carried out 48 h post-plating using the calcium phosphate precipitation method. After 6–8 hours, cells were washed twice with PBS and maintained in fresh medium. Cells transfected with mammalian GluA2 cDNA (plasmid vector described above) were returned to an incubator at 37 °C for 24–48 hours and cells transfected with Epsilon GluE1αA were incubated at 28 °C for 48–72 hours. In cells co-transfected with TARP-γ2, 30 μM NBQX was included in the medium to minimize AMPAR/auxiliary-induced cytotoxicity. All constructs were co-transfected with a plasmid encoding enhanced green fluorescent protein (eGFP) to identify transfected cells. Electrophysiology responses were recorded from outside-out patches excised from transfected cells. Recording pipettes were composed of borosilicate glass (3 to 6 megaohm, King Precision Glass) coated with dental wax to reduce electrical noise. All recordings were performed using Axopatch 200B amplifier (Molecular Devices, LLC). Current records were filtered at 5 or 10 kHz and sampled at 25–50 kHz. Series resistance (3 to 12 megaohms) was compensated by 95%. Recordings were performed at a range of holding potentials from −100 mV to 100 mV to study polyamine block. Data was acquired using pClamp9 software (Molecular Devices, LLC). All experiments were performed at room temperature. All chemicals were purchased from Sigma-Aldrich, unless otherwise indicated. External solution contained (in mM): 150 NaCl, 5 HEPES, 0.1 CaCl2, 0.1 MgCl, and […], pH 7.3–7.4. […] The osmotic pressure of all solutions was adjusted to 295 to 300 mOsm with sucrose. […] Stocks were thawed on the day of the experiment and used to prepared agonist-containing external solutions. Raw data for all electrophysiology experiments are provided in Supplementary Data 3. Current-voltage (I-V) relationships were fit using Origin 7 (OriginLab) using a ninth order polynomial function to estimate the reversal potential (Vrev).
(§3) Agonist-evoked membrane conductance (G) was calculated using the following equation: G=I/(V−Vrev)
(§4) Conductance-voltage (G-V) relationships were fit using Origin 7 (OriginLab) with the single permeant blocker model as done previously[46]: G=Gmax/1+[Spm]/Kd Where Gmax is the maximal conductance, [Spm] is the internal Spm concentration, and Kd is the dissociation constant.
(§5) Kd is defined as: Kd=koff+kperm/kon=sumofexitrates/bindingrate
(§6) And redefined as: Kd=g*exp(V/h)+L*exp(V/k) Where h and k are voltage dependencies of g and L, respectively, and at 0 mV: g=koff/konandL=kperm/kon

[3] = biological target: T2, GluE1αA S642Q (Trichoplax adhaerens, UniProt B3SAW0, S167Q)
T2 sequence (B3SAW0 1-341 S167Q): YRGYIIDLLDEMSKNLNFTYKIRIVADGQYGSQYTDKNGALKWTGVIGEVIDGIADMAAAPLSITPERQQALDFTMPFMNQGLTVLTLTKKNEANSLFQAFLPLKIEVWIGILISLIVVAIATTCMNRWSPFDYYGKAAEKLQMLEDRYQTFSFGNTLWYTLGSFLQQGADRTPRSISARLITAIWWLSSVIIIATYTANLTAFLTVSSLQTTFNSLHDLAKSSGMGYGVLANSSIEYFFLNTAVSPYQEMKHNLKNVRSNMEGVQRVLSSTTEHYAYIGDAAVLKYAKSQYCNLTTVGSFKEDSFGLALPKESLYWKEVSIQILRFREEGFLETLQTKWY
Source text: as §1, §2, §3, §4, §5, §6

[4] = biological target: T3, GluE1αA S642N (Trichoplax adhaerens, UniProt B3SAW0, S167N)
T3 sequence (B3SAW0 1-341 S167N): T2 sequence (B3SAW0 1-341 S167Q) with Q167N
Source text: as §1, §2, §3, §4, §5, §6

[5] = test system: GluE1αA D646A; details: single recordings c1-c7, AVG c8
Source text: as §1, §2
Agonist-evoked membrane conductance (G) was calculated using the following equation: G=I/(V−Vrev) […]

T1 sequence (P42262 25-883 Q607S): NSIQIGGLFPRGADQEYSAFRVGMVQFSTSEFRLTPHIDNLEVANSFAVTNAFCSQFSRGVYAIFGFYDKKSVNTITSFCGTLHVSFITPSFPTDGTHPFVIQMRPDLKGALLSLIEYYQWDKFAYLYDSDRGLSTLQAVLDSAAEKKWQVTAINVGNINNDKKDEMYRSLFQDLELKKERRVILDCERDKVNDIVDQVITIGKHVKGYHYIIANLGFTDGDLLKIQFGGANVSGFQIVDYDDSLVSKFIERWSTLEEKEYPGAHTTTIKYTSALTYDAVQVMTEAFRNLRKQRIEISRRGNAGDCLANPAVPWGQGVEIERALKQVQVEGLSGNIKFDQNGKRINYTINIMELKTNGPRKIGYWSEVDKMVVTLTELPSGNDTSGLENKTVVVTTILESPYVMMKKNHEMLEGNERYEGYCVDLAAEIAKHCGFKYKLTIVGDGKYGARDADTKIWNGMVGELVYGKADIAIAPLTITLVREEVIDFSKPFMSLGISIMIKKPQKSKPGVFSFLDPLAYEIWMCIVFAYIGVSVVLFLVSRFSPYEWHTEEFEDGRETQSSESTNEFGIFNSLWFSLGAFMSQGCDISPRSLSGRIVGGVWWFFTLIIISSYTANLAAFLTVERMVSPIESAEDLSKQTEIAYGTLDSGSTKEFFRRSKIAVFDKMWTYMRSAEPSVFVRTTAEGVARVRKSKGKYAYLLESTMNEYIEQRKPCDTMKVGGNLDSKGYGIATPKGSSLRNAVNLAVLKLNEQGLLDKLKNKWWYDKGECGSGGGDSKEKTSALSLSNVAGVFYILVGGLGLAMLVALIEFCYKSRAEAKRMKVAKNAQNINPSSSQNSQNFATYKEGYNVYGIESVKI
Chain of GluE1αA wt (B3SAW0 1-341): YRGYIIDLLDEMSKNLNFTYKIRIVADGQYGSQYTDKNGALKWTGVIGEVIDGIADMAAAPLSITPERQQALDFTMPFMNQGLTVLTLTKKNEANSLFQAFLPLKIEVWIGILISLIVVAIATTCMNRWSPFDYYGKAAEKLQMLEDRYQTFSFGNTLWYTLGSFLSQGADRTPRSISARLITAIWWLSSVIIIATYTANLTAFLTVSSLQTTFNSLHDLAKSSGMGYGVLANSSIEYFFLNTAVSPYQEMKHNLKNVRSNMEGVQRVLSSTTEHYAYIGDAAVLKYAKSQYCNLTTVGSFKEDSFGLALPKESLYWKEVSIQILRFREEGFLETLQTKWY

[Na+] [Na]
normalized conductance (G-V, Figure 5g), Avg ([1]; Vm 0.00): 0.29
normalized conductance (G-V, Figure 5g), Avg ([1]; Vm 20.00): 0.39
normalized conductance (G-V, Figure 5g), Avg ([1]; Vm 40.00): 0.47
normalized conductance (G-V, Figure 5g), Avg ([1]; Vm 60.00): 0.53
normalized conductance (G-V, Figure 5g), Avg ([1]; Vm 80.00): 0.52
normalized conductance (G-V, Figure 5g), Avg ([1]; Vm -20.00): 0.28
normalized conductance (G-V, Figure 5g), Avg ([1]; Vm -40.00): 0.39
normalized conductance (G-V, Figure 5g), Avg ([1]; Vm -60.00): 0.63
normalized conductance (G-V, Figure 5g), Avg ([1]; Vm -80.00): 1.00
I-V current, Na vs Na, Avg of recordings ([1]; Vm 0.00): -0.0234
I-V current, Na vs Na, Avg of recordings ([1]; Vm 20.00): 0.09
I-V current, Na vs Na, Avg of recordings ([1]; Vm 40.00): 0.23
I-V current, Na vs Na, Avg of recordings ([1]; Vm 60.00): 0.41
I-V current, Na vs Na, Avg of recordings ([1]; Vm 80.00): 0.57
I-V current, Na vs Na, Avg of recordings ([1]; Vm -20.00): -0.10
I-V current, Na vs Na, Avg of recordings ([1]; Vm -40.00): -0.20
I-V current, Na vs Na, Avg of recordings ([1]; Vm -60.00): -0.35
I-V current, Na vs Na, Avg of recordings ([1]; Vm -80.00): -0.61

NCCCNCCCCNCCCN [spermine]
Normalized current (Inorm) GluE1αA wild type ([2]; 50 mV): 0.16 and 0.13 and 0.0847
Normalized current (Inorm) GluE1αA wild type ([2]; -100 mV): -1.00
h, voltage dependency of block onset ([2]; GluE1αA wt): −18.5 ± 0.6 mV
k, voltage dependency of block relief ([2]; GluE1αA wt): 36.5 ± 4.7 mV
Normalized current (Inorm) ([3]; -100 mV, single recordings c1-c10, AVG c11): -1.00
h, voltage dependency of block onset ([3]; GluE1αA S642Q): −15.3 ± 0.7 mV
k, voltage dependency of block relief ([3]; GluE1αA S642Q): 28.3 ± 2.1 mV
Normalized conductance (Gnorm) ([4]; 0 mV, single recordings c1-c7, AVG c8): 0.27 and 0.16 and 0.22
Normalized conductance (Gnorm) ([4]; -80 mV, single recordings c1-c7, AVG c8): 0.79
Normalized current (Inorm) ([4]; -100 mV, single recordings c1-c7, AVG c8): -1.00
h, voltage dependency of block onset ([4]; GluE1αA S642N): −26.4 ± 1.3 mV
k, voltage dependency of block relief ([4]; GluE1αA S642N): 34.9 ± 3.7 mV
Normalized current (Inorm) ([5]; 20 mV): 0.12 and 0.10 and 0.11
Normalized current (Inorm) ([5]; 30 mV): 0.18 and 0.16 and 0.19
Normalized conductance (Gnorm) ([5]; -100 mV): 1.00
Normalized current (Inorm) ([5]; -100 mV): -1.00
